{"source": "paper PMC4941645", "about": "“Oxidative Stress Induced by Pt(IV) Pro-drugs Based on the Cisplatin Scaffold and Indole Carboxylic Acids in Axial Position” (Scientific Reports, 2016)", "key": {"[1]": {"test": "Stability in physiological saline by mass spectrometry", "format": "physicochemical", "conditions": "0.9% NaCl", "method": "Ten indole carboxylic acid Pt(IV) complexes with IAA (indole-3-acetic acid, 1A–5A) and IPA (indole-3-propionic acid, 1P–5P) were synthesized and the structures are depicted in Fig. 3. The monocarboxylato complexes 1A and 1P were prepared by reacting oxoplatin, c,c,t-[Pt(NH3)2Cl2(OH)2], with 0.8 eq. of the activated NHS-ester of the corresponding indole carboxylic acid. The dicarboxylato complexes with two indole acids in axial position (2A and 2P) were obtained using an excess of the NHS-ester activated acid (20 eq.), since the second hydroxo group of oxoplatin is much less reactive than the first one. The unsymmetrically substituted complexes (3A–5A and 3P–5P) were prepared by reaction of the monocarboxylate complexes 1A and 1P with the corresponding anhydrides. We chose three different anhydrides (benzoic, acetic and succinic anhydride) to vary the lipophilicity of the resulting Pt(IV) complexes. All the synthesized Pt(IV) complexes were characterized using elemental analysis, ESI-MS, FT-IR, ^1H and ^195Pt NMR spectroscopy. The purity of the complexes has been assessed through elemental analysis and–where solubility was not an issue–by high performance liquid chromatography (HPLC). The dicarboxylato complexes are poorly soluble in organic solvents. The proton NMR spectra of the complexes in DMSO-d6 show the typical signal of the NH3 protons which is a multiplet at around 6 ppm for the monocarboxylato complexes 1P and 1A (typical ^1JNH and ^2JPtH values around 50 Hz) while it is a broad signal around 6.5 ppm for the bis-substituted complexes (2–5A and 2–5P, Supplementary Information)[44]. The mass spectra of the complexes show a peak in the negative mode with the typical platinum isotope pattern corresponding to M − H^− or M + Cl^−. Stability studies on representative examples of the complexes (1A, 1P, 3A and 3P) via mass spectrometry confirm that the complexes are stable in physiological saline (0.9% NaCl) for at least 48 h (Supplementary Information).\nComplexes 1A, 1P, 3A and 3P where dissolved in a minimum amount of DMF and diluted 1:20 with physiological saline (0.9% NaCl). Mass spectra were recorded at t = 0 and after 48 hours."}, "[2]": {"system": "C13* cisplatin-resistant ovarian cancer cells", "test": "MTT cytotoxicity test, cisplatin-resistant C13*", "format": "cell-based, human", "method": "The cytotoxic properties of the complexes were also evaluated in a pair of tumor cell lines suitably selected for their sensitivity and resistance to cisplatin (adenocarcinoma cells 2008/C13^*). Cross-resistance profiles were evaluated by means of the resistance factor (RF), defined as the ratio between IC50 values calculated for the resistant cells and those obtained with the sensitive ones (Table 2). The phenomenon of cisplatin resistance is multifactorial in nature.\n(§1) Cisplatin was dissolved in 0.9% NaCl solution.\n(§2) Human breast (MCF-7), colon (HCT-15), lung (A549) and pancreatic (BxPC3) carcinoma cell lines together with melanoma (A375) cells were obtained from American Type Culture Collection (ATCC, Rockville, MD). The human ovarian cancer cell line 2008 and its cisplatin resistant variant, C13*, were kindly provided by Prof. G. Marverti (Department of Biomedical Science of Modena University, Italy). Human cervical carcinoma (A431) cells were kindly provided by Prof. F. Zunino (Division of Experimental Oncology B, Istituto Nazionale dei Tumori, Milan, Italy). Cell lines were maintained in the logarithmic phase at 37 °C in a 5% carbon dioxide atmosphere using the following culture media containing 10% fetal calf serum (Euroclone, Milan, Italy), antibiotics (50 units/mL penicillin and 50 μg/mL streptomycin) and 2 mM L-glutamine: (i) RPMI-1640 medium (Euroclone) for 2008, C13*, MCF-7, HCT-15, A431 and BxPC3 cells, (ii) F-12 HAM’S (Sigma Chemical Co.) for A549 cells, iii) DMEM (Sigma Chemical Co.) for A375 cells.\n(§3) The growth inhibitory effect toward tumor cells was evaluated by means of the MTT assay. Briefly, (3–8) × 10^3 cells/well, dependent upon the growth characteristics of the cell line, were seeded in 96-well microplates in growth medium (100 μL). After 24 h, the medium was removed and replaced with fresh medium containing the compound to be studied at the appropriate concentration. Triplicate cultures were established for each treatment. After 24, 48, or 72 h, each well was treated with 10 μL of a 5 mg/mL MTT saline solution and, after 5 h of incubation, 100 μL of a sodium dodecylsulfate (SDS) solution in 0.01 M HCl was added. After an overnight incubation, cell growth inhibition was detected by measuring the absorbance of each well at 570 nm using a Bio-Rad 680 microplate reader. The mean absorbance for each drug dose was expressed as a percentage of the control, untreated well absorbance and plotted vs drug concentration. The IC50 values, the drug concentrations that decrease the mean absorbance at 570 nm to 50% of that of untreated control wells, were calculated from the dose–response curves with the four-parameter logistic model (4PL). The final value is the mean ± S.D. of at least three independent experiments performed in triplicate."}, "A375 melanoma cells [3]": {"system": "A375 melanoma cells", "test": "MTT cytotoxicity test, A375", "format": "cell-based, human", "conditions": "A375, 72 h, ± S.D.", "method": "(§4) The cytotoxic activity of the complexes and of the uncoordinated ligands was evaluated by the MTT test on a panel of human tumor cell lines containing examples of pancreatic (BxPC3), colorectal (HCT-15), breast (MCF-7), cervical (A431), and lung (A549) cancers as well as of melanoma (A375). For comparison purposes, the cytotoxicity of cisplatin was evaluated under the same experimental conditions.\nas §1, §2, §3"}, "[4]": {"system": "panel of human tumor cell lines (BxPC3, HCT-15, MCF-7, A431, A549, A375)", "test": "MTT cytotoxicity, mean over panel of human tumor cell lines", "format": "cell-based", "conditions": "mean over the six cell lines of Table 1, 72 h", "method": "as §4, §3"}, "[5]": {"system": "A431 cervical carcinoma cells", "test": "MTT cytotoxicity test, A431", "format": "cell-based, human", "conditions": "A431, 72 h, ± S.D.", "method": "as §4, §1, §2, §3"}, "A375 melanoma cells [6]": {"system": "A375 melanoma cells", "test": "Cellular accumulation of Pt (GF-AAS)", "format": "cell-based, human", "conditions": "A375, 1.5 and 3 μM, 6 and 24 h"}, "[7]": {"system": "BxPC3 pancreatic carcinoma cells", "test": "MTT cytotoxicity test, BxPC3", "format": "cell-based, human", "conditions": "BxPC3, 72 h, MTT, ± S.D.", "method": "as §4, §1, §2, §3"}, "[8]": {"system": "2008 ovarian cancer cells", "test": "MTT cytotoxicity test, cisplatin-sensitive 2008", "format": "cell-based, human", "conditions": "2008 cisplatin-sensitive, 72 h, ± S.D.", "method": "The cytotoxic properties of the complexes were also evaluated in a pair of tumor cell lines suitably selected for their sensitivity and resistance to cisplatin (adenocarcinoma cells 2008/C13^*). Cross-resistance profiles were evaluated by means of the resistance factor (RF), defined as the ratio between IC50 values calculated for the resistant cells and those obtained with the sensitive ones (Table 2). The phenomenon of cisplatin resistance is multifactorial in nature. Nevertheless, the main molecular mechanisms involved in drug resistance in C13* cancer cells have largely been identified. Indeed, in this cell line resistance is correlated to high cellular glutathione and thioredoxin reductase levels, reduced cellular drug uptake and enhanced repair of DNA damage. […] The RF values calculated for all derivatives were six- to nine-fold lower than that of cisplatin, clearly indicating the absence of cross-resistance.\nas §1\nTriplicate cultures were established for each treatment."}, "[9]": {"system": "A549 lung carcinoma cells", "test": "cells", "conditions": "A549, 72 h, MTT, ± S.D.", "method": "as §4, §1, §2, §3"}, "[10]": {"test": "Log P octanol/water, shake flask method with ICP-MS", "format": "physicochemical", "conditions": "n-octanol / 0.9% NaCl water, Pt by ICP-MS", "method": "Partition coefficients (logP values) for octanol/water partition were determined in order to examine whether a correlation exists between lipophilicity and accumulation into cells. The log P values obtained (Table 3) give the trend in lipophilicity as mono indole acid complex < succinate complex < acetate complex < bis indole acid complex < benzoate complex for both the IAA and the IPA series.\nThe logP values of the Pt(IV) compounds were determined using the shake flask method. The respective Pt(IV) complex was dissolved in 0.9% NaCl (w/v) ultrapure water (presaturated with n-octanol). The solutions were sonicated and filtered to remove undissolved Pt(IV) compounds. The initial Pt concentrations were determined by ICP-MS. Subsequently, the Pt(IV) solutions were added to an equal volume of n-octanol (presaturated with 0.9% NaCl (w/v) ultrapure water). The heterogeneous mixtures were shaken vigorously for 30 min before centrifuging at 4000 rpm for 30 min to achieve phase separation. The final Pt concentration in the aqueous phase was determined again by ICP-MS. The logarithm of the ratio of Pt concentrations in the organic and aqueous phases was calculated to determine the logP values. All experiments were done in duplicate."}, "[11]": {"system": "MCF-7 breast carcinoma cells", "test": "MTT cytotoxicity test, MCF-7", "format": "cell-based, human", "conditions": "MCF-7, 72 h, ± S.D.", "method": "as §4, §1, §2, §3"}, "[12]": {"system": "HCT-15 colon carcinoma cells", "test": "MTT cytotoxicity test, HCT-15", "format": "cell-based, human", "conditions": "HCT-15, 72 h, MTT, ± S.D.", "method": "as §4, §1, §2, §3"}}}
{"compound": "[NH2][Pt]([NH2])([Cl])([Cl])([O]C(=O)CCc1c[nH]c2ccccc12)[O]C(=O)c1ccccc1", "note": "[Complex 3P]", "values": [{"measurement": "stable in physiological saline", "setting": "[1]", "value": "at least 48 h"}, {"measurement": "IC50", "setting": "[2]; C13* cisplatin-resistant, 72 h, MTT, ± S.D.", "value": "1.47 ± 0.68", "unit": "µM"}, {"measurement": "RF (resistance factor)", "setting": "[2]; IC50 resistant (C13*) / parent line (2008)", "value": 0.3}, {"measurement": "IC50", "setting": "A375 melanoma cells [3]", "value": "1.51 ± 1.25", "unit": "µM"}, {"measurement": "IC50", "setting": "[4]", "value": 2.6, "unit": "µM"}, {"measurement": "IC50", "setting": "[5]", "value": "2 ± 0.32", "unit": "µM"}, {"measurement": "cellular platinum accumulation (in words)", "setting": "A375 melanoma cells [6]", "value": "internalized most efficiently"}, {"measurement": "IC50", "setting": "[7]", "value": "2.92 ± 1.13", "unit": "µM"}, {"measurement": "IC50", "setting": "[8]", "value": "4.79 ± 0.69", "unit": "µM"}, {"measurement": "IC50", "setting": "[9]", "value": "0.96 ± 0.06", "unit": "µM"}, {"measurement": "Log P (octanol/water)", "setting": "[10]", "value": "−0.028 ± 0.07"}, {"measurement": "IC50", "setting": "[11]", "value": "2.28 ± 0.46", "unit": "µM"}, {"measurement": "IC50", "setting": "[12]", "value": "5.94 ± 0.63", "unit": "µM"}]}
